# Data from US20230348424A1, “HETEROCYCLIC COMPOUNDS AND METHODS OF USE” (Schrödinger, Inc., priority 2022, published 2023).
# What was measured:
# [1] = target: human SOS1 (Homo sapiens (Human), UniProt Q07889); test: Surface Plasmon Resonance (SPR) SOS1 Binding Assay; settings: biotinylated SOS1 (res. 564-1049), Biacore 8K, 25° C., kinetic or steady state fit, 1:1 binding; read-out: hSOS1 KD
# Description: Binding to SOS1 was measured using a SPR assay with purified recombinant human SOS1 substrate (res. 564-1049 with N-terminal Avi tag; purified and biotinylated based on Hillig, et al., Proc Natl Acad Sci USA (2019); 116(7):2551-2560). SPR measurements were performed on a Biacore 8K SPR instrument (GE Healthcare, Sweden). Assays were performed at 25° C. using Series S SA sensor chips pre-coated with streptavidin (GE Healthcare, Cat. BR100531). Biotinylated SOS1 diluted in sample buffer (20 mM Tris HCI, 150 mM NaCl, 1 mM DTT, 0.05% TWEEN 20, 1 mM MgCh, pH 8.0) was captured to one flow cell of the chip to about 3,000 resonance units (RU) using sample buffer supplemented with 5% DMSO as a running buffer. Serial dilutions of the assayed compounds in the running buffer at 100, 50 or 0.5 µM were injected for 60 s at a flow rate of 30 µL/min and association phases were recorded. Dissociation of the samples was monitored for 600 s. Data processing was performed using Biacore Insight Software (Biacore, GE Healthcare). Sensorgrams recorded on a SA flow cell without captured protein were subtracted from sensorgrams recorded on the SOS1 surface. Blank injections of running buffer were used for double referencing and solvent correction was applied to all sample sensorgrams to correct for buffer mismatches. KDS were estimated using a kinetic or steady state, where applicable, fitting model describing a reversible equilibrium with 1:1 binding between SOS1 and the compound.
# [2] = target: SOS1:KRAS (G12C) interaction (Homo sapiens (Human), UniProt Q07889); test: SOS1 KRas(G12C) FRET Assay; type: binding; settings: 0.5 nM His10-SOS1 (res. 564-1049), 2.5 nM GST-KRAS G12C (res. 1-169), 2 hrs at RT
# Outline: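 GST-KRAS G12C (res. 1-169) at 2.5 nM and His10-SOS1 (res. 564-1049) at 0.5 nM, final, in PBS with 0.1% BSA, 5 mM MgCl2, 100 mM KF, 5 mM DTT and 0.5% DMSO. After 2 h at RT, FRET read at 665/615 nm and normalized to DMSO and no-SOS1 controls. IC50 by non-linear regression.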
# human SOS1, sequence (Q07889 564-1049): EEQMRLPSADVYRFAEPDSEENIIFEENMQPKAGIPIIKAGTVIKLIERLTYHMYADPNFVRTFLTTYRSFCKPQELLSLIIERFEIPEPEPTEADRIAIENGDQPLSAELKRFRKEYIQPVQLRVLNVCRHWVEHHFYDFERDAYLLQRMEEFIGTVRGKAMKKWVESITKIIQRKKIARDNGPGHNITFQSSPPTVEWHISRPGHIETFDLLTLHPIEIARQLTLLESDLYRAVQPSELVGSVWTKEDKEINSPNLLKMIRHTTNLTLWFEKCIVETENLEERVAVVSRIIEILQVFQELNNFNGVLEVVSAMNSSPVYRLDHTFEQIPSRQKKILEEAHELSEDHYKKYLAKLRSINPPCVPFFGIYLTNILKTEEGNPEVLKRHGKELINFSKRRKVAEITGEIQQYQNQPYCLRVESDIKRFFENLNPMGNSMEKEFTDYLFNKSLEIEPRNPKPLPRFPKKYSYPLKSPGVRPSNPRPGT
# SOS1:KRAS (G12C) interaction, sequence (Q07889 564-1049, stated change not applied): as the sequence (Q07889 564-1049) above
Structure (SMILES),Kd [1] [nM],IC50 [2] [nM]
"C[C@@H](NC(=O)c1cn([C@@]2(C)CCOC2)c(=O)cc1NC1CCN(C)CC1)c1cccc(C(F)F)c1F (single isomer, unassigned) [Example 47]",2,4.5
"C[C@@H](NC(=O)c1cn(C2(C(F)F)CC2)c(=O)cc1N[C@@H]1CCN(C)C[C@@H]1F)c1cccc(C(F)F)c1F (single isomer, unassigned) [Example 63]",7,11.3
"C[C@@H](NC(=O)c1cn(C2(C(F)F)CC2)c(=O)cc1N[C@H]1CCN(C)C[C@H]1F)c1cccc(C(F)F)c1F (single isomer, unassigned) [Example 64]",9,15
"Cc1c([C@@H](C)NC(=O)c2cn(C3CCOCC3)c(=O)cc2NC2CCN(C3CC3)CC2)cccc1C(F)(F)F [Example 284, (R)-4-((1-cyclopropylpiperidin-4-yl)amino)-N-(1-(2-methyl-3-(trifluoromethyl)phenyl)ethyl)-6-oxo-1-(tetrahydro-2H-pyran-4-yl)-1,6-dihydropyridine-3-carboxamide]",,23
"C[C@@H](NC(=O)c1cn([C@]23COC[C@H]2C3)c(=O)cc1NC1CCN(C)CC1)c1cccc(C(F)F)c1F [Example 285, 1-((1S,SS)-3-oxabicyclo[3.1.0]hexan-1-yl)-N-((R)-1-(3-(difluoromethyl)-2-fluorophenyl)ethyl)-4-((1-methylpiperidin-4-yl)amino)-6-oxo-1,6-dihydropyridine-3-carboxamide]",,4.7
"[2H]C([2H])([2H])N1CCC(Nc2cc(=O)n(C3(C(F)F)CC3)cc2C(=O)N[C@H](C)c2cccc(C(F)F)c2F)CC1 [Example 286, (R)-N-(1-(3-(difluoromethyl)-2-fluorophenyl)ethyl)-1-(1-(difluoromethyl)cyclopropyl)-4-((1-(methyl-d3)piperidin-4-yl)amino)-6-oxo-1,6-dihydropyridine-3-carboxamide]",,15.5
"C[C@@H](NC(=O)c1cn([C@]23COC[C@H]2C3)c(=O)cc1N[C@H]1[C@@H]2CN(C)C[C@@H]21)c1cccc(C(F)F)c1F [Example 287, 1-((1S,5S)-3-oxabicyclo[3.1.0]hexan-1-yl)-N-((R)-1-(3-(difluoromethyl)-2-fluorophenyl)ethyl)-4-(((1R,5S,6s)-3-methyl-3-azabicyclo[3.1.0]hexan-6-yl)amino)-6-oxo-1,6-dihydropyridine-3-carboxamide]",,9.9
"C[C@@H](NC(=O)c1cn([C@]23COC[C@H]2C3)c(=O)cc1N[C@H]1[C@@H]2CN(C)C[C@@H]21)c1cccc(C(F)(F)F)c1F [Example 290, 1-((1S,5S)-3-oxabicyclo[3.1.0]hexan-1-yl)-N-((R)-1-(2-fluoro-3-(trifluoromethyl)phenyl)ethyl)-4-(((1R,5S,6s)-3-methyl-3-azabicyclo[3.1.0]hexan-6-yl)amino)-6-oxo-1,6-dihydropyridine-3-carboxamide]",,9.2
"C[C@@H](NC(=O)c1cn(C2(C(F)F)CC2)c(=O)cc1N[C@H]1[C@@H]2CC[C@H]1CN(C)C2)c1cccc(C(F)F)c1F [Example 293, N-((R)-1-(3-(difluoromethyl)-2-fluorophenyl)ethyl)-1-(1-(difluoromethyl)cyclopropyl)-4-(((1R,5S,8r)-3-(methyl-d3)-3-azabicyclo[3.2.1]octan-8-yl)amino)-6-oxo-1,6-dihydropyridine-3-carboxamide]",,19.2
"Cc1c([C@@H](C)NC(=O)c2cn(C3CCOCC3)c(=O)cc2NC2CCCn3cncc32)cccc1C(F)(F)F (stereo partly drawn) [Example 300, N-((R)-1-(2-methyl-3-(trifluoromethyl)phenyl)ethyl)-6-oxo-1-(tetrahydro-2H-pyran-4-yl)-4-((5,6,7,8-tetrahydroimidazo[1,5-a]pyridin-8-yl)amino)-1,6-dihydropyridine-3-carboxamide]",,20.8
"Cc1c([C@@H](C)NC(=O)c2cn(C3CCOCC3)c(=O)cc2NC[C@H]2CC[C@H](N(C)C)CC2)cccc1C(F)(F)F [Example 301, 4-((((1r,4R)-4-(dimethylamino)cyclohexyl)methyl)amino)-N-((R)-1-(2-methyl-3-(trifluoromethyl)phenyl)ethyl)-6-oxo-1-(tetrahydro-2H-pyran-4-yl)-1,6-dihydropyridine-3-carboxamide]",,45.3
"C[C@@H](NC(=O)c1cn([C@@H]2CCOC(C)(C)C2)c(=O)cc1N[C@H]1[C@@H]2CN(C)C[C@@H]21)c1cccc(C(F)F)c1F [Example 309, N-((R)-1-(3-(difluoromethyl)-2-fluorophenyl)ethyl)-1-((R)-2,2-dimethyltetrahydro-2H-pyran-4-yl)-4-(((1R,5S,6s)-3-methyl-3-azabicyclo[3.1.0]hexan-6-yl)amino)-6-oxo-1,6-dihydropyridine-3-carboxamide]",,11.7
"C[C@@H](NC(=O)c1cn([C@H]2CCOC(C)(C)C2)c(=O)cc1N[C@H]1[C@@H]2CN(C)C[C@@H]21)c1cccc(C(F)F)c1F [Example 310, N-((R)-1-(3-(difluoromethyl)-2-fluorophenyl)ethyl)-1-((S)-2,2-dimethyltetrahydro-2H-pyran-4-yl)-4-(((1R,5S,6s)-3-methyl-3-azabicyclo[3.1.0]hexan-6-yl)amino)-6-oxo-1,6-dihydropyridine-3-carboxamide]",,37.2
"CCC12CC(n3cc(C(=O)N[C@H](C)c4cccc(C(F)F)c4F)c(NC4[C@H]5CN(C)C[C@@H]45)cc3=O)(C1)C2 (stereo partly drawn) [Example 313, N-((R)-1-(3-(difluoromethyl)-2-fluorophenyl)ethyl)-1-(3-ethylbicyclo[1.1.1]pentan-1-yl)-4-(((1R,5S,6s)-3-methyl-3-azabicyclo[3.1.0]hexan-6-yl)amino)-6-oxo-1,6-dihydropyridine-3-carboxamide]",,10.5

# Further compounds by falling IC50 [2], results first:
Kd [1] [nM],IC50 [2] [nM],Structure (SMILES)
45,71.3,"CO[C@H]1CN(C)CC[C@@H]1Nc1cc(=O)n(C2CCOCC2)cc1C(=O)N[C@H](C)c1cccc(C(F)(F)F)c1C (single isomer, unassigned) [Example 25]"
,53.6,"COCCN1CC(CNc2cc(=O)n(C3CCOCC3)cc2C(=O)N[C@H](C)c2cccc(C(F)(F)F)c2C)C1 [Example 295, (R)-4-(((1-(2-methoxyethyl)azetidin-3-yl)methyl)amino)-N-(1-(2-methyl-3-(trifluoromethyl)phenyl)ethyl)-6-oxo-1-(tetrahydro-2H-pyran-4-yl)-1,6-dihydropyridine-3-carboxamide]"
,53.4,"C[C@@H](NC(=O)c1cn(C2(C(F)F)CC2)c(=O)cc1N[C@@H]1[C@@H]2CC[C@H]1CN(C)C2)c1cccc(C(F)F)c1F [Example 294, N-((R)-1-(3-(difluoromethyl)-2-fluorophenyl)ethyl)-1-(1-(difluoromethyl)cyclopropyl)-4-(((1R,5S,8s)-3-(methyl-d3)-3-azabicyclo[3.2.1]octan-8-yl)amino)-6-oxo-1,6-dihydropyridine-3-carboxamide]"
27,40,"CO[C@@H]1CN(C)CC[C@H]1Nc1cc(=O)n(C2CCOCC2)cc1C(=O)N[C@H](C)c1cccc(C(F)(F)F)c1C (single isomer, unassigned) [Example 24]"
,31.5,"Cc1c([C@@H](C)NC(=O)c2cn(C3CCOCC3)c(=O)cc2NC[C@H]2CC[C@@H](N(C)C)CC2)cccc1C(F)(F)F [Example 302, 4-((((1s,4S)-4-(dimethylamino)cyclohexyl)methyl)amino)-N-((R)-1-(2-methyl-3-(trifluoromethyl)phenyl)ethyl)-6-oxo-1-(tetrahydro-2H-pyran-4-yl)-1,6-dihydropyridine-3-carboxamide]"
7,25.6,"C[C@@H](NC(=O)c1cn([C@]2(C)CCOC2)c(=O)cc1NC1CCN(C)CC1)c1cccc(C(F)F)c1F (single isomer, unassigned) [Example 48]"
,23.6,"C[C@@H](NC(=O)c1cn(C2(C(F)F)CC2)c(=O)cc1NC1CCN(C2(C)CC2)CC1)c1cccc(C(F)F)c1F [Example 288, (R)-N-(1-(3-(difluoromethyl)-2-fluorophenyl)ethyl)-1-(1-(difluoromethyl)cyclopropyl)-4-((1-(1-methylcyclopropyl)piperidin-4-yl)amino)-6-oxo-1,6-dihydropyridine-3-carboxamide]"
,13.3,"C[C@@H](NC(=O)c1cn([C@]23COC[C@H]2C3)c(=O)cc1N[C@H]1[C@@H]2CN(C)C[C@@H]21)c1cccc(C(C)(F)F)c1F [Example 289, 1-((1S,5S)-3-oxabicyclo[3.1.0]hexan-1-yl)-N-((R)-1-(3-(1,1-difluoroethyl)-2-fluorophenyl)ethyl)-4-(((1R,5S,6s)-3-methyl-3-azabicyclo[3.1.0]hexan-6-yl)amino)-6-oxo-1,6-dihydropyridine-3-carboxamide]"
